Experimental data from patent US20260207591A1, “CRYSTAL FORM OF FLUORINE-SUBSTITUTED INDAZOLE COMPOUND AND USE THEREOF” (SUNSHINE LAKE PHARMA CO., LTD., priority 2022, published 2026).

Assays:
[1] = Light-exposure test (stability study); format: physicochemical; conditions: visible 4500 lx±500 lx and UV, 30 days; for Purity (%): HPLC
Text: (§1) Expose the sample to visible light (4500 lx±500 lx) and UV light (energy ≥0.7 W·h/m^2) for 30 days. Collect samples at 0, 5, 10, 15, and 30 days for analysis according to the key stability test items. Observe any color changes and determine purity by HPLC.

[2] = High-temperature test (stability study); format: physicochemical
Protocol: (1) High-Temperature Test:
(§2) Place an appropriate amount of the test sample in a flat weighing bottle, spreading it into a thin layer ≤5 mm thick. Store at 60° C.±2° C. for 30 days. Collect samples at 0, 5, 10, and 30 days for analysis according to the key stability test items. Observe any color changes and determine purity by HPLC.

[3] = Crystal form conversion in solvents; format: physicochemical; conditions: solvents such as ethanol
[4] = High-humidity test (stability study); format: physicochemical; conditions: for Purity (%): HPLC
Protocol: (§3) Place an appropriate amount of the test sample from one batch in a flat weighing bottle, spreading it into a thin layer ≤5 mm thick. Store at 25° C. and 90%±5% relative humidity (RH) for 30 days. Collect samples at 0, 5, 10, and 30 days for analysis according to the key stability test items. Observe any color changes and determine purity by HPLC.

[5] = Hygroscopicity test by dynamic vapor sorption (DVS); format: physicochemical; conditions: for Weight Gain at 60% RH (%) / Weight Gain at 80% RH (%) / Weight Gain at 95% RH (%): DVS, 25° C.; for resistance to deliquescence: high-humidity conditions
Protocol: The hygroscopicity of the present invention was determined using a DVS INT-Std dynamic vapor and gas sorption analyzer from Surface Measurement Systems Ltd. (UK) with the following parameters: humidity test range: 0%-95%, gas flow: 200 mL/min, temperature: 25° C., test points: one measurement point every 5% humidity increase.
An appropriate amount of the test sample was taken, and its hygroscopicity was measured using a dynamic vapor sorption (DVS) instrument. The classification criteria for hygroscopicity characteristics and moisture absorption weight gain (as per Appendix 9103 “Guidelines for Hygroscopicity Testing of Drugs” from the Chinese Pharmacopoeia 2020 Edition, test conditions: 25° C.±1° C., 80%±2% relative humidity (RH)) are described in Table 2 below: […]

[6] = Stability studies, overall conclusion; format: physicochemical
Protocol: Example 5 Stability Studies
as §2, §3, §1

Solubility (HPLC) = format: physicochemical
Protocol: The solubility of the present invention was determined using an Agilent 1200 High Performance Liquid Chromatograph DAD/VWD detector with an Agilent XDB-C18 model (4.6×50 mm, 5 μm). Detection wavelength of 266 nm, flow rate of 1.0 mL/min, the column temperature of 35° C., mobile phase A: acetonitrile—0.01 M ammonium acetate=10:90 (V:V) analysis methods: acetonitrile-mobile phase A=70:30 (V:V), running time: 10 minutes.

[7] = Pharmacokinetics test in Beagle dogs, oral capsules; format: in vivo; conditions: dog, plasma, male Beagle dogs, 5 mg/kg
Protocol: Male Beagle dogs of 8-12 kg were divided into 3 groups, 3 dogs in each group, and capsules containing test samples were orally administered at a dose of 5 mg/kg, and blood was collected at time points of 0.25, 0.5, 1.0, 2.0, 4.0, 6.0, 8.0 and 24 h. Standard curve was plotted based on concentrations of the samples in a suitable range, the concentration of the test sample in the plasma sample was measured and quantified by AB SCIEX API4000-type LC-MS/MS at MRM mode. Pharmacokinetic parameters were calculated according to drug concentration-time curve using a noncompartmental method by WinNonLin 6.3 software.

[8] = 0 day (start of stability tests)
[9] = High-Humidity, 25° C., 90%±5% RH, 30 days

SMILES	Outward [1]	Purity (%) [1]	polymorphic transformation under high-temperature conditions [2]	crystal form conversion in solvents [3]	Outward [4, 8]	Purity (%) [4, 8]	Outward [4, 9]	Purity (%) [4, 9]	Weight Gain at 60% RH (%) [5]	Weight Gain at 80% RH (%) [5]	Weight Gain at 95% RH (%) [5]	resistance to deliquescence [5]	stability under various storage conditions [6]	solubility (in words) (Solubility (HPLC))	AUC(0-t) [7]	Cmax [7]	Tmax [7]	crystal structure stability (polymorphic transition) [6]
COC(=O)Nc1c(N)nc(-c2nn(Cc3ccccc3F)c3c(F)cccc23)nc1N [Crystal Form V, methyl (4,6-diamino-2-(7-fluoro-1-(2-fluorobenzyl)-1H-indazol-3-yl)pyrimidin-5-yl)carbamate]	Pale yellow	99.36%	undergoes polymorphic transformation	exhibit crystal form conversion	Off-white	99.52%	Off-white	99.51%										
COC(=O)Nc1c(N)nc(-c2nn(Cc3ccccc3F)c3c(F)cccc23)nc1N [Crystal Form III, methyl (4,6-diamino-2-(7-fluoro-1-(2-fluorobenzyl)-1H-indazol-3-yl)pyrimidin-5-yl)carbamate]	Pale yellow	99.75%			Pale yellow	99.76%	Pale yellow	99.78%	0.09%	0.14%	0.25%	highly resistant to deliquescence	excellent stability					
COC(=O)Nc1c(N)nc(-c2nn(Cc3ccccc3F)c3c(F)cccc23)nc1N [Crystal Form XI, methyl (4,6-diamino-2-(7-fluoro-1-(2-fluorobenzyl)-1H-indazol-3-yl)pyrimidin-5-yl)carbamate]	Off-white	99.75%			Off-white	99.77%	Off-white	99.80%	0.15%	0.20%	0.26%	highly resistant to deliquescence	excellent stability	good solubility	12100 ng·h/mL	1140 ng/mL	10 h	less prone to polymorphic transition
COC(=O)Nc1c(N)nc(-c2nn(Cc3ccccc3F)c3c(F)cccc23)nc1N [Crystal Form I, methyl (4,6-diamino-2-(7-fluoro-1-(2-fluorobenzyl)-1H-indazol-3-yl)pyrimidin-5-yl)carbamate]				exhibit crystal form conversion														
